The subject of series [1] is reserpine-induced hypothermia mice. The series can be described thus: Anti-reserpine action after oral administration of test compounds. It is filed as in vivo, mice (ddY, male). Particulars: 10 µmol/kg in saline, calculated from AUC of rectal temperature over 420 min versus vehicle, reserpine 3 mg/kg s.c. 18 hours before. The method, then:
Reserpine-induced hypothemia mice (ddY, male, body weight 30 to 40 g) were prepared by the subcutaneous administration of reserpine in back side of the […] (3 mg/kg) at 18 hours before test compounds administration. Mice with their body temperature about 25 °C were used in the experiment. Test compounds were solubilized in saline and 0.2 ml (10 µmol/kg) of them were administered by sonde for oral administration. After the administration, rectal temperature was measured at 30, 60, 120, 180, 240, 300, […]. The area under curve (AUC) of the body temperature-time profile was calculated by the general trapezoidal method. In the control experiment, vehicle (saline) was administered to mice and the rectal temperature was measured by the same protocol.
Effective dose: Dose which can increase the average of body temperatures at 1 °C for 420 min in reserpine-induced hypothermia mice.

A short description of series [2]: Change of blood glucose levels after administration of the test compounds to rats. The format is in vivo, male Wistar rats. Particulars: for blood glucose level as a percentage compared to the baseline level: 50 µmol/kg intravenously, vehicle-treated rats = 100 %. On the procedure: Fasted male Wistar rats (250-350 g) were anaesthesized with urethane. Test compounds were solubilized in saline and administered intravenously (50 µmol/kg). Body temperature of rats were kept at 37 °C by a hot blanket. After the administration, blood was collected from jugular vein at 5, 15, 30, 60, 120, 180, 240, 300, 360, 420, and 480 min and blood glucose levels were measured (BM Test blood sugar. Wako Chemical Indus.). The blood glucose levels at each sampling time in vehicle (saline)-treated rats were defined as the baseline level (100 %). […]

Series [3] has as its system reserpine-induced hypothermia mice. The series can be described thus: Anti-reserpine action after intravenous and intracerebroventricular administration of test compounds. The format is in vivo, mice (ddY, male). Particulars: calculated from AUC of rectal temperature over 180 min versus vehicle; for Dose which can increase the average of body temperatures at 1 °C for 180 min in reserpine-induced hypothermia mice, administered intracerebroventricularly: intracerebroventricular, 0.21 µmol/kg; for Dose which can increase the average of body temperatures at 1 °C for 180 min in reserpine-induced hypothermia mice, administered intravenously: intravenous, 1 µmol/kg. On the procedure: Recerpine-induced hypothermia mice (ddY, male) were prepared by the administration of reserpine (3 mg/kg) at 18 hours before test compounds administration. Mice with their body temperature about 25 °C were used in the experiment. Test compounds were solubilized in saline and 0.1 ml (1 µmol/kg) of them were administered intravenously and 0.005 ml (0.21 µmol/kg) of them were administered intracerebroventricularly, respectively. After the administration, rectal temperature was measured at 30, 60, 120, and 180 min. The area under curve (AUC) of the body temperature-time profile was calculated by the general trapezoidal method. In the control experiment, vehicle (saline) was administered to mice intravenously or intracerebroventricularly and the rectal temperature was measured by the same protocol.
Effective dose: Dose which can increase the average of body temperatures at 1°C for 180 min in reserpine-induced hypothermia mice.

[4] abbreviates: time 0 min, fasted urethane-anaesthetized rats.

As for `CC(C)OC(=O)CNC(=O)[C@@H]1CCCN1C(=O)[C@H](Cc1cscn1)NC(=O)[C@H]1NC(=O)O[C@H]1C` [I-30], the “Dose which can increase the average of body temperatures at 1 °C for 420 min in reserpine-induced hypothermia mice (by oral)” value (“Dose which can increase the average … (by oral)” for short) in series [1] was 2.59 µmol/kg.

Turning to `C[C@H]1OC(=O)N[C@H]1C(=O)N[C@@H](Cc1cscn1)C(=O)N1CCC[C@H]1C(N)=O` (mixture of isomers) [I-10, cis-L-5-methyl-2-oxo-oxazolidine-4-yl-carbonyl-3-(4-thiazolyl)-L-alanyl-L-prolineamide], the “blood glucose level as a percentage compared to the baseline level” value (“blood glucose level as a percentage” below) was 107.7% in series [2] (setting [4]); 119.9% in series [2] (time 5 min); 104.3% in series [2] (time 15 min); 109.1% in series [2] (time 30 min); 112.1% in series [2] (time 60 min); 126.5% in series [2] (time 120 min). Also, the “blood glucose level as a percentage” value is reported as 105.3% in series [2] (time 180 min); 110.9% in series [2] (time 240 min); 104.0% in series [2] (time 300 min); 100.4% in series [2] (time 360 min); 102.6% in series [2] (time 420 min); 111.8% in series [2] (time 480 min). Further, in series [1], the “Dose which can increase the average … (by oral)” value was 1.14 µmol/kg. For the same compound, the “Dose which can increase the average of body temperatures at 1 °C for 180 min in reserpine-induced hypothermia mice, administered intracerebroventricularly” value in series [3] is 0.025 µmol/kg. For the same compound, in series [3], the “Dose which can increase the average of body temperatures at 1 °C for 180 min in reserpine-induced hypothermia mice, administered intravenously” value was 0.11 µmol/kg.

With `C[C@@H]1OC(=O)N[C@@H]1C(=O)N[C@@H](Cc1cscn1)C(=O)N1CSC[C@H]1C(N)=O` [I-11], the “Dose which can increase the average … (by oral)” value in series [1] was 2.03 µmol/kg.

Regarding `CN1C(=O)C[C@@H](C(=O)N[C@@H](Cc2cscn2)C(=O)N2CSC[C@H]2C(N)=O)NC1=O` [I-5], the “Dose which can increase the average … (by oral)” value in series [1] is 1.22 µmol/kg.

Consider `NC(=O)[C@@H]1CCCN1C(=O)[C@H](Cc1cnc[nH]1)NC(=O)[C@@H]1CCC(=O)N1` [TRH, L-pyroglutamyl-L-histidyl-L-prolineamide], for which the “acute rise of the blood glucose level and acute fall by the rebound” value in series [2] (result in words, general description) is “acutely raises up the blood glucose level”. The “blood glucose level as a percentage” value amounted to 116.3% in series [2] (setting [4]); 114.6% in series [2] (time 5 min); 123.3% in series [2] (time 15 min); 137.9% in series [2] (time 30 min); 153.5% in series [2] (time 60 min); 139.1% in series [2] (time 120 min). Besides, the “blood glucose level as a percentage” value in series [2] (time 180 min) is 119.1%; in series [2] (time 240 min) it was 112.6%; in series [2] (time 300 min) it was 113.2%; in series [2] (time 360 min), 103.5%; in series [2] (time 420 min), 102.6%; in series [2] (time 480 min), 97.1%. In addition, the “Dose which can increase the average … (by oral)” value in series [1] was 42.68 µmol/kg. In series [3], the “Dose which can increase the average of body temperatures at 1 °C for 180 min in reserpine-induced hypothermia mice, administered intracerebroventricularly” value was 0.033 µmol/kg. In addition, the “Dose which can increase the average of body temperatures at 1 °C for 180 min in reserpine-induced hypothermia mice, administered intravenously” value in series [3] was 9.84 µmol/kg.

For the compound `C[C@H]1OC(=O)N(CN2CCOCC2)[C@H]1C(=O)N[C@@H](Cc1cscn1)C(=O)N1CCC[C@H]1C(N)=O` (mixture of isomers) [I-40, cis-L-3-morpholinomethyl-5-methyl-2-oxo-oxazolidine-4-yl-carbonyl-3-(4-thiazolyl)-L-alanyl-L-prolineamide], the “Dose which can increase the average … (by oral)” value in series [1] is 1.65 µmol/kg.

Source of the values: EP0933379B1, “NOVEL PEPTIDE DERIVATIVES HAVING THIAZOLYL-ALANINE RESIDUE” (SHIONOGI & CO., LTD., priority 1996, dated 1998).
